Series [1] concerns Candida albicans. Put plainly: MIC test (growth inhibition, 96 well plates, OD). Format: cell-based. Conditions: read-out: Minimum Inhibitory Concentration (MIC). The method, then:
(§1) The MIC test is a test on growth inhibition. Estimation of Minimum Inhibitory Concentration (MIC) is executed in 96 well plates. Through the comparison of bacterial growth with positive and negative controls via optical density (OD), different concentrations of given test substances are evaluated.
(§2) Bacteria are cultivated under adjusted conditions based on information of the German Collection of Microorganisms and Cell Cultures (DSMZ) and stored in 50% Glycerol prior to use. Afterwards, the following method was applied: Adding growth medium (according to microorganism) to each well of the microplate. Adding the test-substances in different concentrations, positive controls (water controls only with medium) and negative controls (benchmarks according to organism). Adding the microorganism in a concentration of 10^6 CFU/ml (CFU=colony forming units). Incubation of the microplates at appropriate conditions.
(§3) According to resulting growth, substance concentrations are labelled either as inhibiting or not and MIC is defined as the lowest concentration where a complete growth inhibition is visible. Experiments at concentration limits (highest concentration labelled as growth and lowest concentration labelled as inhibiting) are performed at least twice.

The subject of series [2] is Corynebacterium jeikeium. Put plainly: MIC test (growth inhibition, 96 well plates, OD). The series is classed as cell-based. Conditions: read-out: Minimum Inhibitory Concentration (MIC). As to the method:
as §1, §2, §3

Series [3] has as its system Escherichia coli. The series can be described thus: MIC test (growth inhibition, 96 well plates, OD). The series is classed as cell-based. Conditions: read-out: Minimum Inhibitory Concentration (MIC). The method, then:
as §1, §2, §3

The subject of series [4] is Propionibacterium acnes. Put plainly: MIC test (growth inhibition, 96 well plates, OD). Format: cell-based. Conditions: Cutibacterium acnes; read-out: Minimum Inhibitory Concentration (MIC). As to the method: as §1, §2, §3
Series [5] relates to Staphylococcus aureus. The series can be described thus: MIC test (growth inhibition, 96 well plates, OD). The series is classed as cell-based. Conditions: read-out: Minimum Inhibitory Concentration (MIC). The method, then:
as §1, §2, §3

Series [6] concerns Staphylococcus hominis. Put plainly: MIC test (growth inhibition, 96 well plates, OD). Format: cell-based. The conditions noted are these: read-out: Minimum Inhibitory Concentration (MIC). As to the method:
as §1, §2, §3

Series [7] deals with Aspergillus brasiliensis. The series can be described thus: MIC and Kull synergy index of 1,2-/2,3-alkanediol mixtures. The series is classed as cell-based.
Series [8] can be described thus: Sensory evaluation on the backside of the hand (spreading, fatty/greasy skin feel, absorption), untrained panellists. Conditions: for Absorption/remaining residue with alkanediol: scale 1 to 5. As to the method: For evaluating the sensory behaviour, liquid lipophilic components specified in the following table were blended with 1,2-heptanediol or 2,3-heptanediol or a mixture of 1,2-heptanediol and 2,3-heptanediol or 1,2-octanediol or 2,3-octanediol or a mixture of 1,2-octanediol and 2,3-octanediol (formulation) in a ratio of 85:15 and assessed by untrained panellists in comparison to the liquid lipophilic component without addition of the specified alkanediols (placebo).
The test procedure was carried as follows: For evaluating the sensory behaviour of 1,2-alkanediols and/or 2,3-alkanediols in combination with different liquid lipophilic components, oil components specified in the following table were blended with a 1,2-alkanediol or a 2,3-alkanediol or a mixture including a 1,2-alkanediol and a 2,3-alkanediol in a ratio as specified in Table 53 and assessed by untrained panellists in comparison to the liquid lipophilic component without addition of the 1,2-alkanediol or 2,3-alkanediol or the mixture including a 1,2-alkanediol and 2,3-alkanediol (placebo).
Test Procedure: • Hands were pre-washed with liquid soap by following a defined procedure; 30 μl of corresponding sample was applied on the backside of each hand (randomized); • After 30 s the spreading behaviour of the respective formulation on skin was evaluated versus the respective oil component without 1,2-heptanediol on a scale from 1 to 5 (1=low spreading; 5=high spreading); • The samples were distributed with the fingertips of middle and forefinger with 2×5 cycles; • After 2 minutes, the fatty/greasy skin feel was evaluated on a scale from 1 to 5 (1=low fatty/greasy skin feel; 5=high fatty/greasy skin feel); • Furthermore the applicants were asked to assess the absorption, i.e. the impression of amount of remaining residue on the skin on a scale from 1 to 5 (1=low absorption; 5=high absorption).

Series [9] deals with Aspergillus brasiliensis (AB). Put plainly: Preservation efficacy test (PET), European Pharmacopoeia 5.1.3. Format: cell-based. As to the method:
(§4) The preservation efficacy test (PET) was performed in accordance with European Pharmacopoeia § 5.1.3: The test is a reference European Pharmacopoeia method, that is to be used to evaluate the preservation system of a cosmetic or pharmaceutical preparation. The test consists of challenging the preparation under test, with prescribed inoculums of suitable microorganisms. The preservation porperties of the preparation are adequate if, in the conditions of the test, there is a significant fall or no increase, as appropriate, in the number of microorganisms in the inoculated preparations after the time prescribed.
(§5) The test microorganisms which were used, are the following:
(§6) Pseudomonas aeruginosa (PA) (bacterium); Staphylococcus aureus (SA) (bacterium); Escherichia coli (EC) (bacterium); Candida albicans (CA) (yeast); and Aspergillus brasiliensis (AB) (fungus).

Series [10] has as its system Candida albicans (CA). The description is as above. The series is classed as cell-based. The method, then:
as §4, §5, §6

Series [11] relates to Escherichia coli (EC). The description is as above. Format: cell-based. The method, then:
as §4, §5, §6

The subject of series [12] is Pseudomonas aeruginosa (PA). The description is as above. Format: cell-based. As to the method:
as §4, §5, §6

Series [13] has as its system Staphylococcus aureus (SA). The series is described as above. Format: cell-based. The method, then: as §4, §5, §6
In series [14] the test system is human sebaceous glands. Put plainly: Sebum production of micro-dissected, cultured human sebaceous glands (lipids/proteins after six days). The series is classed as cell-based. On the set-up: sebum reduction: concentration or dose not given beside the values. Conditions: compared to untreated control; six days; single donor (FIG. 4). The method, then: Additional tests were performed with human sebaceous glands in order to verify the modulatory activity of different 1,2-alkanediols and 2,3-alkanediols on sebum secretion. Several microbial species on the skin are lipid dependent and feed on the human sebum (e.g. Corynebacterium, Propionibacterium). Accordingly, sebum reduction can indirectly support the reduction of microorganisms on the skin and in this way also indirectly support e.g. dandruff or acne reduction.
For these experiments sebaceous glands had been micro-dissected and cultured with medium. The medium without any supplement served as untreated control. Medium with 5 μM Capsaicin served as positive control. Additionally, culture medium was supplemented with different concentrations of alkanediols. After six days the sebaceous glands were collected and lipids and proteins quantified. The total lipid amount being representative of sebum production was obtained by normalizing the quantified lipids upon the quantified proteins (i.e. mg of lipids/mg of proteins).

The mark [15] stands for this setting: single 1,2-alkanediol, read-out: MIC Component A.
Setting [16] is: blend with Caprylic Capric Triglyceride (CCT) (neutral oil), rows r187-r195, vs without.
Where [17] appears, read: blend with Caprylic Capric Triglyceride (CCT) (neutral oil), rows r187-r195.

≈ marks a conversion by molar mass, not a printed value. Where two headings read alike, the source gives them in different places.

On to `CCCCCCCCC(O)CO` (stereo not drawn) [1,2-Decanediol, 1,2-decanediol, reference compound], for which the MIC in series [1] stood at 250 µg/mL (≈ 1430 µM); in series [2], 2500 µg/mL (≈ 14300 µM); in series [3], 250 µg/mL (≈ 1430 µM); in series [4], 500 µg/mL (≈ 2870 µM); in series [5], 250 µg/mL (≈ 1430 µM); in series [6], 500 µg/mL (≈ 2870 µM).

Turning to `CCCCC(O)CO` (stereo not drawn) [1,2-hexanediol], in [7] (setting [15]), the MIC worked out at 7500 µg/mL. For the same compound, the “Absorption/remaining residue Delta” value in series [8] (setting [16]) came to 1.8. Besides, the “Absorption/remaining residue with alkanediol” value in [8] (setting [17]) was determined as 2.8.

As for `CCCCCCC(O)CO` (stereo not drawn) [1,2-octanediol], the MIC is 2500 µg/mL (≈ 17100 µM) in [1]; 5000 µg/mL (≈ 34200 µM) in series [2]; 5000 µg/mL (≈ 34200 µM) in series [3]; 2500 µg/mL (≈ 17100 µM) in series [5]; 5000 µg/mL (≈ 34200 µM) in series [6]; 2500 µg/mL in [7] (setting [15]). Besides, the “number of microorganisms after 2 days” value is recorded as 22,000,000 in series [9] (0.1% in wet wipes solution); 2,400,000 in series [9] (0.2% in o/w emulsion); 4,700,000 in series [10] (0.1% in wet wipes solution); 950,000 in series [10] (0.2% in o/w emulsion); 1,300,000 in series [11] (0.1% in wet wipes solution); 1 in [11] (0.2% in o/w emulsion). Further, the “number of microorganisms after 2 days” value in series [12] (0.1% in wet wipes solution) is 1,300,000; in [12] (0.2% in o/w emulsion) it was 1; in series [13] (0.1% in wet wipes solution), 425; in [13] (0.2% in o/w emulsion) it was 1. The “number of microorganisms after 7 days” value is on record as 8,500,000 in series [9] (0.1% in wet wipes solution); 2,700,000 in series [9] (0.2% in o/w emulsion); 3,900,000 in series [10] (0.1% in wet wipes solution); 15,000 in series [10] (0.2% in o/w emulsion); 3,500,000 in series [11] (0.1% in wet wipes solution); 1 in series [11] (0.2% in o/w emulsion). Also, the “number of microorganisms after 7 days” value in series [12] (0.1% in wet wipes solution) is reported as 2,500,000; in series [12] (0.2% in o/w emulsion), 1; in series [13] (0.1% in wet wipes solution), 50; in series [13] (0.2% in o/w emulsion), 1. Moreover, the “number of microorganisms after 14 days” value in series [9] (0.1% in wet wipes solution) was 11,000,000; in [9] (0.2% in o/w emulsion) it was 2,100,000; in series [10] (0.1% in wet wipes solution) it was 5,800,000; in series [10] (0.2% in o/w emulsion), 36; in [11] (0.1% in wet wipes solution), 2,100,000; in [11] (0.2% in o/w emulsion), 1. Moreover, the “number of microorganisms after 14 days” value in [12] (0.1% in wet wipes solution) is recorded as 750,000; in [12] (0.2% in o/w emulsion), 1; in series [13] (0.1% in wet wipes solution), 50; in series [13] (0.2% in o/w emulsion), 1. The “number of microorganisms after 28 days” value in [9] (0.1% in wet wipes solution) is 12,000,000; in series [9] (0.2% in o/w emulsion), 1,200,000; in series [10] (0.1% in wet wipes solution), 9,300,000; in series [10] (0.2% in o/w emulsion), 1; in series [11] (0.1% in wet wipes solution) it was 2,300; in series [11] (0.2% in o/w emulsion) it was 1. Also, the “number of microorganisms after 28 days” value in [12] (0.1% in wet wipes solution) is listed as 350,000; in series [12] (0.2% in o/w emulsion), 1; in series [13] (0.1% in wet wipes solution) it was 50; in [13] (0.2% in o/w emulsion), 1. The “Absorption/remaining residue Delta” value in series [8] (blend with Argan Oil vs without) came to 1.2; in series [8] (blend with Avocado Oil vs without), 1.2; in series [8] (blend with Cacao butter vs without) it was 0.6; in series [8] (blend with Castor Oil vs without) it was 1; in [8] (blend with Coconut Oil vs without) it was 0.8; in series [8] (blend with Grapeseed Oil vs without) it was 1. Moreover, the “Absorption/remaining residue Delta” value is 1.8 in series [8] (blend with Helianthus Annuus (Sunflower) Seed Oil vs without); 0.5 in [8] (blend with Octocrylene (Neo Heliopan 303), vs without); 1.4 in [8] (blend with Olive Oil vs without). Besides, the “Absorption/remaining residue with alkanediol” value stood at 2.6 in series [8] (blend with Argan Oil); 2.6 in [8] (blend with Avocado Oil); 3 in series [8] (blend with Cacao butter); 3.4 in series [8] (blend with Castor Oil); 3 in series [8] (blend with Coconut Oil); 1.6 in series [8] (blend with Grapeseed Oil). Further, the “Absorption/remaining residue with alkanediol” value in series [8] (blend with Helianthus Annuus (Sunflower) Seed Oil) came to 2; in series [8] (blend with Octocrylene (Neo Heliopan 303)) it was 3.5; in series [8] (blend with Olive Oil), 2.6.

The compound `CCCCCCCCCC(O)CO` (stereo not drawn) [1,2-undecanediol] returned a sebum reduction in series [14] of 44%.

On to `CCCCCCCCC(O)C(C)O` (stereo not drawn) [2,3-Undecanediol, 2,3-undecanediol], for which the MIC in [1] turned out to be 250 µg/mL (≈ 1330 µM); in [2], 250 µg/mL (≈ 1330 µM); in [3], 500 µg/mL (≈ 2660 µM); in [4], 250 µg/mL (≈ 1330 µM); in [5], 250 µg/mL (≈ 1330 µM); in series [6], 250 µg/mL (≈ 1330 µM). The sebum reduction entry in series [14] was “more than 50%”.

`CCCC(O)C(C)O` (stereo not drawn) [2,3-hexandiol, 2,3-hexanediol]: in [7] (single 2,3-alkanediol, read-out: MIC Component B), the MIC amounted to 20000 µg/mL. Moreover, the “Absorption/remaining residue Delta” value in series [8] (setting [16]) was 1.8. Also, in series [8] (setting [17]), the “Absorption/remaining residue with alkanediol” value was 2.8.

(Values after patent US20230248626A1, “Compositions Comprising (Bio)-Alkanediols” (Symrise AG, priority 0001, published 2023).)
